What was measured:
Type in all cases: in vivo
[1] = system: ryegrass, Italian (Italian ryegrass, Lolium multiflorum); assay: Test A postemergence, Italian ryegrass; conditions: postemergence, 0 to 100 scale, 0 is no effect, 100 is complete control, approximately 10 days
Description: (§1) Seeds of plant species selected from barnyardgrass (Echinochloa crus-galli), kochia (Kochia scoparia), ragweed (common ragweed, Ambrosia elatior), ryegrass, Italian (Italian ryegrass, Lolium multiflorum), foxtail, giant (giant foxtail, Setaria faberii), and pigweed (Amaranthus retroflexus), were planted into a blend of loam soil and sand and treated preemergence with a directed soil spray using test chemicals formulated in a non-phytotoxic solvent mixture which included a surfactant.
(§2) At the same time, plants selected from these weed species and also wheat (Triticum aestivum), corn (Zea mays), blackgrass (Alopecurus myosuroides), and galium (catchweed bedstraw, Galium aparine), were planted in pots containing the same blend of loam soil and sand and treated with postemergence applications of test chemicals formulated in the same manner. Plants ranged in height from 2 to 10 cm and were in the one- to two-leaf stage for the postemergence treatment. Treated plants and untreated controls were maintained in a greenhouse for approximately 10 days, after which time all treated plants were compared to untreated controls and visually evaluated for injury. Plant response ratings, summarized in Table A, are based on a 0 to 100 scale where 0 is no effect and 100 is complete control. A dash (—) response means no test result.

[2] = system: ragweed (common ragweed, Ambrosia elatior); assay: Test A postemergence, ragweed; conditions: postemergence, 0 to 100 scale, 0 is no effect, 100 is complete control, approximately 10 days
Description: as §1, §2

[3] = system: pigweed (Amaranthus retroflexus); assay: Test A postemergence, pigweed; conditions: postemergence, 0 to 100 scale, 0 is no effect, 100 is complete control, approximately 10 days
Description: as §1, §2

[4] = system: foxtail, giant (giant foxtail, Setaria faberii); assay: Test A preemergence, giant foxtail; conditions: Preemergence, 0 to 100 scale (0 no effect, 100 complete control)
Description: as §1, §2

[5] = system: blackgrass (Alopecurus myosuroides); assay: Test A postemergence, blackgrass; conditions: postemergence, 0 to 100 scale, 0 is no effect, 100 is complete control, approximately 10 days
Description: as §1, §2

kochia (Kochia scoparia) [6] = assay: Test A preemergence, kochia; conditions: Preemergence, 0 to 100 scale (0 no effect, 100 complete control)
Description: as §1, §2

kochia (Kochia scoparia) [7] = assay: Test A postemergence, kochia; conditions: postemergence, 0 to 100 scale, 0 is no effect, 100 is complete control, approximately 10 days
Description: as §1, §2

[8] = system: barnyardgrass (Echinochloa crus-galli); assay: Test A postemergence, barnyardgrass; conditions: postemergence, 0 to 100 scale, 0 is no effect, 100 is complete control, approximately 10 days
Description: as §1, §2

[9] = system: ducksalad (Heteranthera limosa); assay: Test B flooded paddy test, ducksalad; conditions: 250 g ai/ha, Flood; visual rating after 13 to 15 days; scale 0 to 100, 0 is no effect, 100 is complete control
Experimental: (§3) Plant species in the flooded paddy test selected from rice (Oryza sativa), sedge, umbrella (small-flower umbrella sedge, Cyperus difformis), ducksalad (Heteranthera limosa), and barnyardgrass (Echinochloa crus-galli) were grown to the 2-leaf stage for testing. At time of treatment, test pots were flooded to 3 cm above the soil surface, treated by application of test compounds directly to the paddy water, and then maintained at that water depth for the duration of the test. Treated plants and controls were maintained in a greenhouse for 13 to 15 days, after which time all species were compared to controls and visually evaluated. Plant response ratings, summarized in Table B, are based on a scale of 0 to 100 where 0 is no effect and 100 is complete control. A dash (—) response means no test result.

[10] = system: barnyardgrass (Echinochloa crus-galli); assay: Test A preemergence, barnyardgrass; conditions: Preemergence, 0 to 100 scale (0 no effect, 100 complete control)
Description: as §1, §2

[11] = system: ryegrass, Italian (Italian ryegrass, Lolium multiflorum); assay: Test A preemergence, Italian ryegrass; conditions: Preemergence, 0 to 100 scale (0 no effect, 100 complete control)
Description: as §1, §2

[12] = system: foxtail, giant (giant foxtail, Setaria faberii); assay: Test A postemergence, giant foxtail; conditions: postemergence, 0 to 100 scale, 0 is no effect, 100 is complete control, approximately 10 days
Description: as §1, §2

[13] = system: ragweed (common ragweed, Ambrosia elatior); assay: Test A preemergence, ragweed; conditions: Preemergence, 0 to 100 scale (0 no effect, 100 complete control)
Description: as §1, §2

[14] = system: sedge, umbrella (small-flower umbrella sedge, Cyperus difformis); assay: Test B flooded paddy test, umbrella sedge; conditions: 250 g ai/ha, Flood; visual rating after 13 to 15 days; scale 0 to 100, 0 is no effect, 100 is complete control
Experimental: as §3

rice (Oryza sativa) = assay: Test B flooded paddy test, rice; conditions: 250 g ai/ha, Flood; visual rating after 13 to 15 days; scale 0 to 100, 0 is no effect, 100 is complete control
Experimental: as §3

[15] = system: wheat (Triticum aestivum); assay: Test A postemergence, wheat; conditions: postemergence, 0 to 100 scale, 0 is no effect, 100 is complete control, approximately 10 days
Description: as §1, §2

[16] = system: barnyardgrass (Echinochloa crus-galli); assay: Test B flooded paddy test, barnyardgrass; conditions: 250 g ai/ha, Flood; visual rating after 13 to 15 days; scale 0 to 100, 0 is no effect, 100 is complete control
Experimental: as §3

[17] = system: pigweed (Amaranthus retroflexus); assay: Test A preemergence, pigweed; conditions: Preemergence, 0 to 100 scale (0 no effect, 100 complete control)
Description: as §1, §2

corn (Zea mays) = assay: Test A postemergence, corn; conditions: postemergence, 0 to 100 scale, 0 is no effect, 100 is complete control, approximately 10 days
Description: as §1, §2

[18] = system: galium (catchweed bedstraw, Galium aparine); assay: Test A postemergence, galium; conditions: postemergence, 0 to 100 scale, 0 is no effect, 100 is complete control, approximately 10 days
Description: as §1, §2

Structure (SMILES) | Plant response rating, Ryegrass, Italian ([1]; 125 g ai/ha) | Plant response rating, Ryegrass, Italian ([1]; 500 g ai/ha) | Plant response rating, Ragweed ([2]; 125 g ai/ha) | Plant response rating, Ragweed ([2]; 500 g ai/ha) | Plant response rating, Pigweed ([3]; 125 g ai/ha) | Plant response rating, Pigweed ([3]; 500 g ai/ha) | Plant response rating, Foxtail, Giant ([4]; 125 g ai/ha) | Plant response rating, Foxtail, Giant ([4]; 500 g ai/ha) | Plant response rating, Blackgrass ([5]; 125 g ai/ha) | Plant response rating, Blackgrass ([5]; 500 g ai/ha) | Plant response rating, Kochia (kochia (Kochia scoparia) [6]; 125 g ai/ha) | Plant response rating, Kochia (kochia (Kochia scoparia) [6]; 500 g ai/ha) | Plant response rating, Kochia (kochia (Kochia scoparia) [7]; 125 g ai/ha) | Plant response rating, Kochia (kochia (Kochia scoparia) [7]; 500 g ai/ha) | Plant response rating, Barnyardgrass ([8]; 125 g ai/ha) | Plant response rating, Barnyardgrass ([8]; 500 g ai/ha) | Plant response rating, Ducksalad [9] | Plant response rating, Barnyardgrass ([10]; 125 g ai/ha) | Plant response rating, Barnyardgrass ([10]; 500 g ai/ha) | Plant response rating, Ryegrass, Italian ([11]; 125 g ai/ha) | also measured
CC(C)CCCOc1c(Br)cccc1Oc1ncc(Cl)cn1 [Compound 11] | 0 | 20 | 0 | 0 | 60 | 100 | 90 | 100 | 0 | 40 | 0 | 0 | 20 | 90 | 10 | 90 | 0 | 20 | 90 | 0 | Plant response rating, Ryegrass, Italian ([11]; 500 g ai/ha): 30; Plant response rating, Foxtail, Giant ([12]; 125 g ai/ha): 20; Plant response rating, Foxtail, Giant ([12]; 500 g ai/ha): 60; Plant response rating, Ragweed ([13]; 125 g ai/ha): 0; Plant response rating, Ragweed ([13]; 500 g ai/ha): 0; Plant response rating, Sedge, Umbrella [14]: 0; Plant response rating, Rice (rice (Oryza sativa)): 0; Plant response rating, Wheat ([15]; 125 g ai/ha): 0; Plant response rating, Wheat ([15]; 500 g ai/ha): 20; Plant response rating, Barnyardgrass [16]: 0; Plant response rating, Pigweed ([17]; 125 g ai/ha): 0; Plant response rating, Pigweed ([17]; 500 g ai/ha): 80; Plant response rating, Corn (corn (Zea mays); 125 g ai/ha): 30; Plant response rating, Corn (corn (Zea mays); 500 g ai/ha): 30; Plant response rating, Galium ([18]; 125 g ai/ha): 70; Plant response rating, Galium ([18]; 500 g ai/ha): 100
CC(C)CCOc1c(Br)cccc1Oc1ncc(Cl)cn1 [Compound 12] | 0 | 30 | 10 | 20 | 70 | 100 | 90 | 100 | 20 | 60 | 0 | 70 | 90 | 100 | 10 | 100 | 0 | 70 | 100 | 0 | Plant response rating, Ryegrass, Italian ([11]; 500 g ai/ha): 40; Plant response rating, Foxtail, Giant ([12]; 125 g ai/ha): 10; Plant response rating, Foxtail, Giant ([12]; 500 g ai/ha): 100; Plant response rating, Ragweed ([13]; 125 g ai/ha): 0; Plant response rating, Ragweed ([13]; 500 g ai/ha): 0; Plant response rating, Sedge, Umbrella [14]: 0; Plant response rating, Rice (rice (Oryza sativa)): 0; Plant response rating, Wheat ([15]; 125 g ai/ha): 0; Plant response rating, Wheat ([15]; 500 g ai/ha): 20; Plant response rating, Barnyardgrass [16]: 0; Plant response rating, Pigweed ([17]; 125 g ai/ha): 40; Plant response rating, Pigweed ([17]; 500 g ai/ha): 100; Plant response rating, Corn (corn (Zea mays); 125 g ai/ha): 30; Plant response rating, Corn (corn (Zea mays); 500 g ai/ha): 30; Plant response rating, Galium ([18]; 125 g ai/ha): 70; Plant response rating, Galium ([18]; 500 g ai/ha): 100
N#Cc1cccc(Oc2ncc(Cl)cn2)c1OCC(F)(F)C(F)F [Compound 14] | 10 | 50 | 10 | 20 | 100 | 100 | 100 | 100 | 60 | 90 | 90 | 100 | 100 | 100 | 80 | 100 | 0 | 90 | 100 | 10 | Plant response rating, Ryegrass, Italian ([11]; 500 g ai/ha): 70; Plant response rating, Foxtail, Giant ([12]; 125 g ai/ha): 80; Plant response rating, Foxtail, Giant ([12]; 500 g ai/ha): 100; Plant response rating, Ragweed ([13]; 125 g ai/ha): 0; Plant response rating, Ragweed ([13]; 500 g ai/ha): 0; Plant response rating, Sedge, Umbrella [14]: 0; Plant response rating, Rice (rice (Oryza sativa)): 0; Plant response rating, Wheat ([15]; 125 g ai/ha): 20; Plant response rating, Wheat ([15]; 500 g ai/ha): 40; Plant response rating, Barnyardgrass [16]: 0; Plant response rating, Pigweed ([17]; 125 g ai/ha): 100; Plant response rating, Pigweed ([17]; 500 g ai/ha): 100; Plant response rating, Corn (corn (Zea mays); 125 g ai/ha): 20; Plant response rating, Corn (corn (Zea mays); 500 g ai/ha): 50; Plant response rating, Galium ([18]; 125 g ai/ha): 50; Plant response rating, Galium ([18]; 500 g ai/ha): 100
N#Cc1cccc(Oc2ncc(Cl)cn2)c1OCC(F)F [Compound 16] | 0 | 80 | 10 | 60 | 90 | 100 | 100 | 100 | 10 | 90 | 100 | 100 | 100 | 100 | 20 | 90 | 30 | 80 | 100 | 10 | Plant response rating, Ryegrass, Italian ([11]; 500 g ai/ha): 40; Plant response rating, Foxtail, Giant ([12]; 125 g ai/ha): 30; Plant response rating, Foxtail, Giant ([12]; 500 g ai/ha): 100; Plant response rating, Ragweed ([13]; 125 g ai/ha): 60; Plant response rating, Ragweed ([13]; 500 g ai/ha): 90; Plant response rating, Sedge, Umbrella [14]: 0; Plant response rating, Rice (rice (Oryza sativa)): 0; Plant response rating, Wheat ([15]; 125 g ai/ha): 0; Plant response rating, Wheat ([15]; 500 g ai/ha): 20; Plant response rating, Barnyardgrass [16]: 0; Plant response rating, Pigweed ([17]; 125 g ai/ha): 100; Plant response rating, Pigweed ([17]; 500 g ai/ha): 100; Plant response rating, Corn (corn (Zea mays); 125 g ai/ha): 20; Plant response rating, Corn (corn (Zea mays); 500 g ai/ha): 70; Plant response rating, Galium ([18]; 125 g ai/ha): 30; Plant response rating, Galium ([18]; 500 g ai/ha): 90
FC(F)COc1c(Br)cccc1Oc1ncc(Cl)cn1 [Compound 17] | 0 | 70 | 0 | 40 | 100 | 100 | 100 | 100 | 10 | 90 | 90 | 100 | 100 | 100 | 20 | 90 | 85 | 80 | 100 | 10 | Plant response rating, Ryegrass, Italian ([11]; 500 g ai/ha): 70; Plant response rating, Foxtail, Giant ([12]; 125 g ai/ha): 40; Plant response rating, Foxtail, Giant ([12]; 500 g ai/ha): 100; Plant response rating, Ragweed ([13]; 125 g ai/ha): 0; Plant response rating, Ragweed ([13]; 500 g ai/ha): 30; Plant response rating, Sedge, Umbrella [14]: 80; Plant response rating, Rice (rice (Oryza sativa)): 0; Plant response rating, Wheat ([15]; 125 g ai/ha): 0; Plant response rating, Wheat ([15]; 500 g ai/ha): 20; Plant response rating, Barnyardgrass [16]: 0; Plant response rating, Pigweed ([17]; 125 g ai/ha): 100; Plant response rating, Pigweed ([17]; 500 g ai/ha): 100; Plant response rating, Corn (corn (Zea mays); 125 g ai/ha): 20; Plant response rating, Corn (corn (Zea mays); 500 g ai/ha): 50; Plant response rating, Galium ([18]; 125 g ai/ha): 30; Plant response rating, Galium ([18]; 500 g ai/ha): 80

Reference: patent publication US10485235B2, “Aryloxypyrimidinyl ethers as herbicides” (FMC Corporation, priority 2015, dated 2019)
